Results as given in PubChem BioAssay (NCI).
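Test compounds were applied to cells in 96-well plates for 48 hours at 5 doses. TGI is the concentration that stops growth completely.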

Assays:
Assay in all cases: NCI tumour cell line growth inhibition, 48 h
MDA-MB-231 breast = test system: MDA-MB-231 breast
COLO 205 colon = test system: COLO 205 colon
M14 melanoma = test system: M14 melanoma
ACHN renal = test system: ACHN renal
MALME-3M melanoma = test system: MALME-3M melanoma
OVCAR-5 ovarian = test system: OVCAR-5 ovarian
SK-MEL-2 melanoma = test system: SK-MEL-2 melanoma
SF-268 CNS = test system: SF-268 CNS
UO-31 renal = test system: UO-31 renal
IGROV1 ovarian = test system: IGROV1 ovarian
DU-145 prostate = test system: DU-145 prostate
CAKI-1 renal = test system: CAKI-1 renal
EKVX NSCLC = test system: EKVX NSCLC
HCC-2998 colon = test system: HCC-2998 colon
OVCAR-3 ovarian = test system: OVCAR-3 ovarian
HCT-116 colon = test system: HCT-116 colon
HCT-15 colon = test system: HCT-15 colon
NCI-H23 lung = test system: NCI-H23 lung
SF-539 CNS = test system: SF-539 CNS
T-47D breast = test system: T-47D breast
SR leukemia = test system: SR leukemia
TK-10 renal = test system: TK-10 renal
SN12C renal = test system: SN12C renal
A498 renal = test system: A498 renal
786-0 renal = test system: 786-0 renal
HL-60(TB) leukemia = test system: HL-60(TB) leukemia
PC-3 prostate = test system: PC-3 prostate
NCI-H522 lung = test system: NCI-H522 lung
NCI-H226 lung = test system: NCI-H226 lung
MCF7 breast = test system: MCF7 breast
SF-295 CNS = test system: SF-295 CNS
SK-MEL-28 melanoma = test system: SK-MEL-28 melanoma
HT29 colon = test system: HT29 colon
SNB-19 CNS = test system: SNB-19 CNS
RPMI-8226 leukemia = test system: RPMI-8226 leukemia
OVCAR-4 ovarian = test system: OVCAR-4 ovarian
HS 578T breast = test system: HS 578T breast
A549 NSCLC = test system: A549 NSCLC
KM12 colon = test system: KM12 colon
MDA-MB-435 = test system: MDA-MB-435
HOP-62 NSCLC = test system: HOP-62 NSCLC
SK-MEL-5 melanoma = test system: SK-MEL-5 melanoma
K-562 leukemia = test system: K-562 leukemia
MDA-N = test system: MDA-N
UACC-257 melanoma = test system: UACC-257 melanoma
U251 CNS = test system: U251 CNS
SK-OV-3 ovarian = test system: SK-OV-3 ovarian
SNB-75 CNS = test system: SNB-75 CNS
CCRF-CEM leukemia = test system: CCRF-CEM leukemia
NCI-H460 lung = test system: NCI-H460 lung
HOP-92 NSCLC = test system: HOP-92 NSCLC
UACC-62 melanoma = test system: UACC-62 melanoma
SW-620 colon = test system: SW-620 colon
OVCAR-8 ovarian = test system: OVCAR-8 ovarian
RXF 393 renal = test system: RXF 393 renal
NCI/ADR-RES ovarian = test system: NCI/ADR-RES ovarian
LOX IMVI melanoma = test system: LOX IMVI melanoma
MOLT-4 leukemia = test system: MOLT-4 leukemia
BT-549 breast = test system: BT-549 breast

Measured: TGI

O=C1c2ccccc2C2=Cc3ccccc3C(O)N12 (centres undefined)
64.1 µM: HL-60(TB) leukemia
40.8 µM: NCI-H522 lung
83.5 µM: SR leukemia
65.3 µM: UACC-62 melanoma
83.8 µM: RXF 393 renal
35 µM: UO-31 renal
91.9 µM: MOLT-4 leukemia
43.2 µM: CAKI-1 renal
not listed: BT-549 breast
> 100 µM: all other assays above

O=C1CC[C@@]2(O)[C@H]3Cc4ccc(-c5cccc(O)c5)c5c4[C@@]2(CCN3CC2CC2)[C@H]1O5
> 92.4 µM: MCF7 breast
28.2 µM: UACC-62 melanoma
36.6 µM: SF-539 CNS | 786-0 renal
> 83.3 µM: SN12C renal
> 55.6 µM: SW-620 colon
> 91.2 µM: PC-3 prostate
24.8 µM: SK-MEL-2 melanoma
33.4 µM: HT29 colon
52.1 µM: RPMI-8226 leukemia
> 100 µM: DU-145 prostate | CAKI-1 renal | SK-MEL-28 melanoma | SNB-19 CNS | OVCAR-4 ovarian | A549 NSCLC
67.1 µM: SF-268 CNS
25.1 µM: U251 CNS
> 85.9 µM: ACHN renal
43.3 µM: COLO 205 colon
76.6 µM: BT-549 breast
> 80.3 µM: OVCAR-5 ovarian
52.7 µM: RXF 393 renal
> 89.6 µM: IGROV1 ovarian
43.9 µM: OVCAR-3 ovarian | SF-295 CNS
90.2 µM: NCI-H226 lung
27.8 µM: MDA-MB-435
26.5 µM: UACC-257 melanoma
27.2 µM: LOX IMVI melanoma
29.2 µM: NCI-H460 lung
> 30.4 µM: EKVX NSCLC
80.8 µM: HOP-92 NSCLC
66.9 µM: SR leukemia
31.2 µM: SK-MEL-5 melanoma
> 84 µM: NCI-H23 lung
42.7 µM: UO-31 renal
4.92 µM: HL-60(TB) leukemia
46.9 µM: MDA-MB-231 breast
34.1 µM: HCC-2998 colon
30.9 µM: NCI-H522 lung | MDA-N
0.513 µM: CCRF-CEM leukemia
44.4 µM: OVCAR-8 ovarian
53.2 µM: NCI/ADR-RES ovarian
38.6 µM: HCT-116 colon
71.3 µM: HCT-15 colon
57.5 µM: KM12 colon
66.2 µM: HOP-62 NSCLC
47 µM: TK-10 renal | K-562 leukemia
56.4 µM: MOLT-4 leukemia
48.3 µM: A498 renal
26.2 µM: M14 melanoma

CC(=O)CC(O)(C(F)(F)Cl)C(F)(F)Cl
not listed: OVCAR-5 ovarian | BT-549 breast
> 10 µM: all other assays above
